From patent US20070060558A1 (PALUMED S.A., priority 2004, published 2007)
≈ marks a conversion by molar mass, not a printed value. Read-outs that look alike come from different tables or passages of the source. Positions of bridges follow the written chain, without caps; N, C: chain ends. Non-standard residues stand in square brackets, D forms with d. Residues, ends and D or L forms follow the SMILES beside them. *: point of attachment. NMePhe(4-NMe2) = CN[C@@H](Cc1ccc(N(C)C)cc1)C(=O)O; Pip(4-oxo) = O=C1CCN[C@H](C(=O)O)C1; Picolinoyl(3-OH) = O=C(c1ncccc1O)*; Phg = N[C@H](C(=O)O)c1ccccc1; dAbu = CC[C@@H](N)C(=O)O

Key:
[1] = system: S. pneumoniae PSSP CQI 201; assay: Antibacterial activity (MIC); format: cell-based, Streptococcus pneumoniae
[2] = system: C. difficile CIP 104282; assay: Antibacterial activity (MIC); format: cell-based, Clostridium difficile; settings: Clostridioides difficile, CIP104282
[3] = system: Staphylococcus aureus MSSA CIP 4.83; assay: Antibacterial activity (MIC/MBC); format: cell-based; settings: for MBC: read-out: MBC
[4] = system: S. pneumoniae PRSP clinical isolate; assay: Antibacterial activity (MIC/MBC); format: cell-based, Streptococcus pneumoniae; settings: Streptococcus pneumoniae; for MIC: PRSP, read-out: MIC
[5] = system: S. pneumoniae PSSP CIP 6.92; assay: Antibacterial activity (MIC/MBC); format: cell-based; settings: Streptococcus pneumoniae, CIP6
[6] = system: E. faecalis VRE CIP 104676; assay: Antibacterial activity (MIC/MBC); format: cell-based, Enterococcus faecalis; settings: Enterococcus faecalis, E. faecalis VRE CIP 104676; for MIC: read-out: MIC
[7] = system: S. pneumoniae PRSP CIP 104471; assay: Antibacterial activity (MIC/MBC); format: cell-based, Streptococcus pneumoniae; settings: Streptococcus pneumoniae; for MIC: read-out: MIC
[8] = system: H. influenzae CIP 102514; assay: Antibacterial activity (MIC/MBC); format: cell-based, Haemophilus influenzae; settings: Haemophilus influenzae, CIP102514
[9] = system: S. pyogenes CIP 56.41T; assay: Antibacterial activity (MIC/MBC); format: cell-based, Streptococcus pyogenes
[10] = system: Staphylococcus aureus MSSA 53.154; assay: Murine experimental septicaemia, in vivo efficacy; set-up: species or system mice; settings: sc
Method: Experimental septicaemia was induced in mice as follows. Briefly, male Swiss OF1 mice (IFFA CREDO-Charles River) weighing 18 to 20 grams were infected intraperitoneally with 0.5 mL of a bacterial suspension containing 8.5×10^7 cfu of Staphylococcus aureus MSSA 53.154 (Institut Pasteur). The hybrid molecules were administered subcutaneously at 1 and 6 h post infection. Control and treatment groups at each dose were composed of seven mice. All the infected but untreated control mice died within 9 days. The 50% effective dose (ED50) values were calculated by a computerized program (GraphPad) from the survival rates on day 9 after infection.

[11] = system: M. catarrhalis CIP73.21T; assay: Antibacterial activity (MIC/MBC); format: cell-based; settings: Moraxella catarrhalis
[12] = system: E. faecalis VRE VanA CIP106996; assay: Antibacterial activity (MIC); format: cell-based; settings: Enterococcus faecalis
[13] = system: E. faecium VRE VanA CIP107387; assay: Antibacterial activity (MIC); format: cell-based; settings: Enterococcus faecium
[14] = system: E. faecalis VRE VanB CIP106998; assay: Antibacterial activity (MIC); format: cell-based; settings: Enterococcus faecalis
[15] = system: S. epidermidis MSCNS (D10); assay: Antibacterial activity (MIC); format: cell-based; settings: Staphylococcus epidermidis
[16] = system: S. aureus MRSA clinical isolate; assay: Antibacterial activity (MIC); format: cell-based, Staphylococcus aureus
[17] = system: S. epidermidis MRCNS (E93); assay: Antibacterial activity (MIC); format: cell-based; settings: Staphylococcus epidermidis
[18] = system: S. aureus VISA CIP 106757; assay: Antibacterial activity (MIC); format: cell-based; settings: Staphylococcus aureus
[19] = system: S. aureus MsrA PUL 5054; assay: Antibacterial activity (MIC); format: cell-based; settings: Staphylococcus aureus
[20] = system: S. pneumoniae PRSP (CQR 162); assay: Antibacterial activity (MIC); format: cell-based; settings: Streptococcus pneumoniae
[21] = system: E. coli CIP 54127; assay: Antibacterial activity (MIC); format: cell-based; settings: Escherichia coli, CIP54127; E. coli CIP 54127; read-out: MIC
[22] = system: P. aeruginosa CIP 103467; assay: Antibacterial activity (MIC); format: cell-based; settings: Pseudomonas aeruginosa, CIP103467; P. aeruginosa CIP 103467; read-out: MIC
[23] = system: S. pneumoniae PRSP; assay: Antibacterial activity (MIC), Table VII; format: cell-based; settings: Streptococcus pneumoniae; S. pneumoniae PRSP (Table VII); read-out: MIC
[24] = system: B. thuringiensis CIP 104676; assay: Antibacterial activity (MIC); format: cell-based; settings: Bacillus thuringiensis, CIP104676; B. thuringiensis CIP 104676; read-out: MIC
[25] = Streptococcus pneumoniae, S. pneumoniae PSSP CQI 201, read-out: MIC
[26] = C. difficile CIP 104282, read-out: MIC
[27] = Staphylococcus aureus, S. aureus MSSA CIP 4.83
[28] = Staphylococcus aureus, S. aureus MSSA CIP 4.83, read-out: MIC
[29] = Streptococcus pyogenes, CIP56, S. pyogenes CIP 56.41T
[30] = Streptococcus pyogenes, CIP56, S. pyogenes CIP 56.41T, read-out: MIC
[31] = mice, subcutaneously at 1 and 6 h post infection, survival on day 9, hybrid molecules formulated in water as their sodium salt, read-out: ED50
[32] = H. influenzae CIP 102514, read-out: MIC

CC(=O)NC[C@H]1CN(c2ccc(N3CCOCC3)c(F)c2)C(=O)O1 [Linezolid, reference compound]
MIC [1, 25]: 1.25 µg/mL (≈ 3.71 µM)
MIC [2, 26]: 0.16 µg/mL (≈ 0.474 µM)

CC(=O)OCC1=C(C(=O)O)N2C(=O)[C@@H](NC(=O)CNc3ccnc4cc(C(F)(F)F)ccc34)[C@H]2SC1 [PA 1100, (6R,7R)-3-Acetoxymethyl-7-[2-(7-trifluoromethylquinolin-4-ylamino)-acetylamino]-8-oxo-5-thia-1-aza-bicyclo[4.2.0]oct-2-ene-2-carboxylic acid]
MBC [3, 27]: 25 µg/mL (≈ 47.7 µM)
MIC [3, 28]: 0.2 µg/mL (≈ 0.381 µM)
MBC [4]: 0.39 µg/mL (≈ 0.744 µM)
MIC [4]: 0.39 µg/mL (≈ 0.744 µM)
MBC [5]: 0.006 µg/mL (≈ 0.0114 µM)
MIC [5]: 0.006 µg/mL (≈ 0.0114 µM)
MBC [6]: 25 µg/mL (≈ 47.7 µM)
MIC [6]: 12.5 µg/mL (≈ 23.8 µM)
MBC [7]: 0.78 µg/mL (≈ 1.49 µM)
MIC [7]: 0.2 µg/mL (≈ 0.381 µM)
MBC [8]: 25 µg/mL (≈ 47.7 µM)
MIC [8]: 0.78 µg/mL (≈ 1.49 µM)
MBC [9, 29]: 0.003 µg/mL (≈ 0.00572 µM)
MIC [9, 30]: 0.003 µg/mL (≈ 0.00572 µM)
ED50 [10, 31]: 0.16 mg/kg
MBC [11]: 1.56 µg/mL (≈ 2.97 µM)
MIC [11]: 0.78 µg/mL (≈ 1.49 µM)

CC(=O)OCC1=C(C(=O)O)N2C(=O)[C@@H](NC(=O)CNc3cc(C)nc4ccccc34)[C@H]2SC1 [PA 1101, (6R,7R-3-Acetoxymethyl-7-[2-2-methylquinolin-4-ylamino)acetylamino]-8-oxo-5-thia-1-aza-bicyclo[4.2.0]oct-2-ene-2-carboxylic acid]
MBC [3, 27]: 25 µg/mL (≈ 53.1 µM)
MIC [3, 28]: 0.2 µg/mL (≈ 0.425 µM)
MBC [4]: 0.39 µg/mL (≈ 0.829 µM)
MIC [4]: 0.2 µg/mL (≈ 0.425 µM)
MBC [5]: 0.006 µg/mL (≈ 0.0128 µM)
MIC [5]: 0.006 µg/mL (≈ 0.0128 µM)
MBC [6]: 25 µg/mL (≈ 53.1 µM)
MIC [6]: 25 µg/mL (≈ 53.1 µM)
MBC [7]: 0.78 µg/mL (≈ 1.66 µM)
MIC [7]: 0.2 µg/mL (≈ 0.425 µM)
MBC [8]: 12.5 µg/mL (≈ 26.6 µM)
MIC [8]: 1.56 µg/mL (≈ 3.32 µM)
MBC [9, 29]: 0.0015 µg/mL (≈ 0.00319 µM)
MIC [9, 30]: 0.0015 µg/mL (≈ 0.00319 µM)
ED50 [10, 31]: 0.13 mg/kg
MBC [11]: 0.78 µg/mL (≈ 1.66 µM)
MIC [11]: 0.78 µg/mL (≈ 1.66 µM)

CN[C@H](CC(C)C)C(=O)N[C@H]1C(=O)N[C@@H](CC(N)=O)C(=O)N[C@H]2C(=O)N[C@H]3C(=O)N[C@H](C(=O)N[C@H](C(=O)O)c4cc(O)cc(O)c4-c4cc3ccc4O)[C@H](O)c3ccc(c(Cl)c3)Oc3cc2cc(c3OC2OC(CO)C(O)C(O)C2OC2CC(C)(NCCNc3ccnc4cc(Cl)ccc34)C(O)C(C)O2)Oc2ccc(cc2Cl)[C@H]1O (stereo partly drawn) [PA 1159]
MIC ([12]; E. faecalis VRE VanA CIP106996, read-out: MIC): 1.56 µg/mL (≈ 0.943 µM)
MIC [3, 28]: 0.2 µg/mL (≈ 0.121 µM)
MIC ([13]; E. faecium VRE VanA CIP107387, read-out: MIC): 25 µg/mL (≈ 15.1 µM)
MIC ([14]; E. faecalis VRE VanB CIP106998, read-out: MIC): 12.5 µg/mL (≈ 7.56 µM)
MIC ([15]; S. epidermidis MSCNS (D10), read-out: MIC): 0.2 µg/mL (≈ 0.121 µM)
MIC ([16]; Staphylococcus aureus, S. aureus MRSA clinical isolate, read-out: MIC): 0.1 µg/mL (≈ 0.0605 µM)
MIC ([17]; S. epidermidis MRCNS (E93), read-out: MIC): 0.05 µg/mL (≈ 0.0302 µM)
MIC ([18]; S. aureus VISA CIP 106757, read-out: MIC): 0.2 µg/mL (≈ 0.121 µM)
MIC [1, 25]: 0.006 µg/mL (≈ 0.00363 µM)
MIC [9, 30]: 0.125 µg/mL (≈ 0.0756 µM)
MIC [2, 26]: 0.16 µg/mL (≈ 0.0967 µM)
MIC [19]: < 0.045 µg/mL
MIC ([20]; S. pneumoniae PRSP (CQR 162), read-out: MIC): 0.025 µg/mL (≈ 0.0151 µM)
ED50 ([10]; mice, subcutaneously at 1 and 6 h post infection, survival on day 9, hybrid molecules formulated in water as their bis(hydrochloride) salt, read-out: ED50): 0.37 mg/kg

O=C(CCNc1ccnc2cc(Cl)ccc12)NC[C@H]1CN(c2ccc(N3CCOCC3)c(F)c2)C(=O)O1 [PA 1185, (5S)-3-(7-Chloroquinolin-4-ylamino)-N-[3-(3-fluoro-4-morpholin-4-yl-phenyl)-2-oxo-oxazolidin-5-ylmethyl]-propionamide]
MIC [1, 25]: 1.25 µg/mL (≈ 2.37 µM)
MIC [2, 26]: 0.16 µg/mL (≈ 0.303 µM)

Cl.O=C(O)c1cn(C2CC2)c2cc(N3CCN(c4ccnc5cc(C(F)(F)F)ccc45)CC3)c(F)cc2c1=O [PA 1284, 1-Cyclopropopyl-6-fluoro-4-oxo-7-[4-(7-trifluoromethylquinolin-4-yl)-piperazin-1-yl]-1,4-dihydroquinoline-3-carboxylic acid hydrochloride salt]
MIC [3, 28]: 0.156 µg/mL
MIC [21]: 1.25 µg/mL
MIC [22]: > 5 µg/mL
MIC [6]: 0.625 µg/mL
MIC [8, 32]: 0.625 µg/mL
MIC [23]: 0.039 µg/mL
MIC [24]: 0.625 µg/mL

Cl.O=C(O)c1cn(C2CC2)c2cc(N3CCN(c4ccnc5c(Cl)cccc45)CC3)c(F)cc2c1=O [PA 1285, 7-[4-(8-Chloroquinolin-4-yl)-piperazin-1-yl]-1-cyclopropopyl-6-fluoro-4-oxo-1,4-dihydroquinoline-3-carboxylic acid hydrochloride salt]
MIC [3, 28]: 0.02 µg/mL
MIC [21]: 0.625 µg/mL
MIC [22]: > 5 µg/mL
MIC [6]: 0.156 µg/mL
MIC [8, 32]: 0.312 µg/mL
MIC [23]: 0.039 µg/mL
MIC [24]: 0.156 µg/mL

CC[C@H]1NC(=O)[C@@H](NC(=O)c2ncccc2O)[C@@H](C)OC(=O)[C@H](c2ccccc2)NC(=O)[C@@H]2CC(=O)CCN2C(=O)[C@H](Cc2ccc(N(C)C)cc2)N(C)C(=O)[C@@H]2CCCN2C1=O [Pristinamycin IA, reference compound] ({Picolinoyl(3-OH)}-T[dAbu]P[NMePhe(4-NMe2)][Pip(4-oxo)][Phg]; ester 1-C)
MIC ([3]; S. aureus MSSA CIP 4.83): 2.5 µg/mL (≈ 2.88 µM)
MIC ([16]; S. aureus MRSA clinical isolate): 5 µg/mL (≈ 5.77 µM)
MIC ([1]; S. pneumoniae PSSP CQI 201): 0.31 µg/mL (≈ 0.358 µM)
MIC ([9]; S. pyogenes CIP 56.41T): 1.25 µg/mL (≈ 1.44 µM)

CN[C@H](CC(C)C)C(=O)N[C@H]1C(=O)N[C@@H](CC(N)=O)C(=O)N[C@H]2C(=O)N[C@H]3C(=O)N[C@H](C(=O)N[C@H](C(=O)O)c4cc(O)cc(O)c4-c4cc3ccc4O)[C@H](O)c3ccc(c(Cl)c3)Oc3cc2cc(c3O[C@@H]2O[C@H](CO)[C@@H](O)[C@H](O)[C@H]2O[C@H]2C[C@](C)(N)[C@H](O)[C@H](C)O2)Oc2ccc(cc2Cl)[C@H]1O [Vancomycin, reference compound]
MIC [12]: > 50 µg/mL
MIC ([3]; Staphylococcus aureus): 0.78 µg/mL (≈ 0.538 µM)
MIC [13]: > 50 µg/mL
MIC [14]: 25 µg/mL (≈ 17.3 µM)
MIC [15]: 1.56 µg/mL (≈ 1.08 µM)
MIC ([16]; Staphylococcus aureus, MRSA): 0.78 µg/mL (≈ 0.538 µM)
MIC [17]: 0.78 µg/mL (≈ 0.538 µM)
MIC [18]: 1.56 µg/mL (≈ 1.08 µM)
MIC ([1]; Streptococcus pneumoniae): 0.2 µg/mL (≈ 0.138 µM)
MIC ([9]; Streptococcus pyogenes, CIP56): 0.2 µg/mL (≈ 0.138 µM)
MIC [2]: 0.31 µg/mL (≈ 0.214 µM)
MIC [19]: 0.75 µg/mL (≈ 0.518 µM)
MIC ([20]; PRSP): 0.39 µg/mL (≈ 0.269 µM)
ED50 [10]: 0.16 mg/kg
